Measurements taken from patent US20260265238A1, “COMPOUNDS AND PHARMACEUTICAL COMPOSITIONS THAT DEGRADE SWI/SNF-RELATED MATRIX-ASSOCIATED ACTIN-DEPENDENT REGULATOR OF CHROMATIN SUBFAMILY A” (Plexium, Inc., priority 2023, published 2026).

Tests used:
[1] = target: T1, SMARCA4-HiBiT HeLa cells (protein which is expressed from the SMARCA4 gene) (Homo sapiens, UniProt P51532); test: SMARCA4 degradation assay (HiBiT-fusion HeLa cell line, 24 h, luminescence); format: cell-based
T1 construct: protein which is expressed from the SMARCA2 and SMARCA4 genes; host or cells: HeLa (SMARCA4-HiBiT engineered line)
In short: (§1)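 SMARCA2- or SMARCA4-HiBiT HeLa cells seeded overnight at 37° C, then given compound as a 10-point dilution (typically 10 μM to 300 pM) for 24 h at 37° C. Protein level read by HiBiT lytic detection luminescence; DC50 from dose-response curves; degradation also scored at 1 μM.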

[2] = target: T2, SMARCA2-HiBiT HeLa cells (protein which is expressed from the SMARCA2 gene) (Homo sapiens, UniProt P51531); test: SMARCA2 degradation assay (HiBiT-fusion HeLa cell line, 24 h, luminescence); format: cell-based
T2 construct: protein which is expressed from the SMARCA2 and SMARCA4 genes; host or cells: HeLa (SMARCA2-HiBiT engineered line)
In short: as §1

T1 sequence (P51532 whole entry, the tested form may be a part): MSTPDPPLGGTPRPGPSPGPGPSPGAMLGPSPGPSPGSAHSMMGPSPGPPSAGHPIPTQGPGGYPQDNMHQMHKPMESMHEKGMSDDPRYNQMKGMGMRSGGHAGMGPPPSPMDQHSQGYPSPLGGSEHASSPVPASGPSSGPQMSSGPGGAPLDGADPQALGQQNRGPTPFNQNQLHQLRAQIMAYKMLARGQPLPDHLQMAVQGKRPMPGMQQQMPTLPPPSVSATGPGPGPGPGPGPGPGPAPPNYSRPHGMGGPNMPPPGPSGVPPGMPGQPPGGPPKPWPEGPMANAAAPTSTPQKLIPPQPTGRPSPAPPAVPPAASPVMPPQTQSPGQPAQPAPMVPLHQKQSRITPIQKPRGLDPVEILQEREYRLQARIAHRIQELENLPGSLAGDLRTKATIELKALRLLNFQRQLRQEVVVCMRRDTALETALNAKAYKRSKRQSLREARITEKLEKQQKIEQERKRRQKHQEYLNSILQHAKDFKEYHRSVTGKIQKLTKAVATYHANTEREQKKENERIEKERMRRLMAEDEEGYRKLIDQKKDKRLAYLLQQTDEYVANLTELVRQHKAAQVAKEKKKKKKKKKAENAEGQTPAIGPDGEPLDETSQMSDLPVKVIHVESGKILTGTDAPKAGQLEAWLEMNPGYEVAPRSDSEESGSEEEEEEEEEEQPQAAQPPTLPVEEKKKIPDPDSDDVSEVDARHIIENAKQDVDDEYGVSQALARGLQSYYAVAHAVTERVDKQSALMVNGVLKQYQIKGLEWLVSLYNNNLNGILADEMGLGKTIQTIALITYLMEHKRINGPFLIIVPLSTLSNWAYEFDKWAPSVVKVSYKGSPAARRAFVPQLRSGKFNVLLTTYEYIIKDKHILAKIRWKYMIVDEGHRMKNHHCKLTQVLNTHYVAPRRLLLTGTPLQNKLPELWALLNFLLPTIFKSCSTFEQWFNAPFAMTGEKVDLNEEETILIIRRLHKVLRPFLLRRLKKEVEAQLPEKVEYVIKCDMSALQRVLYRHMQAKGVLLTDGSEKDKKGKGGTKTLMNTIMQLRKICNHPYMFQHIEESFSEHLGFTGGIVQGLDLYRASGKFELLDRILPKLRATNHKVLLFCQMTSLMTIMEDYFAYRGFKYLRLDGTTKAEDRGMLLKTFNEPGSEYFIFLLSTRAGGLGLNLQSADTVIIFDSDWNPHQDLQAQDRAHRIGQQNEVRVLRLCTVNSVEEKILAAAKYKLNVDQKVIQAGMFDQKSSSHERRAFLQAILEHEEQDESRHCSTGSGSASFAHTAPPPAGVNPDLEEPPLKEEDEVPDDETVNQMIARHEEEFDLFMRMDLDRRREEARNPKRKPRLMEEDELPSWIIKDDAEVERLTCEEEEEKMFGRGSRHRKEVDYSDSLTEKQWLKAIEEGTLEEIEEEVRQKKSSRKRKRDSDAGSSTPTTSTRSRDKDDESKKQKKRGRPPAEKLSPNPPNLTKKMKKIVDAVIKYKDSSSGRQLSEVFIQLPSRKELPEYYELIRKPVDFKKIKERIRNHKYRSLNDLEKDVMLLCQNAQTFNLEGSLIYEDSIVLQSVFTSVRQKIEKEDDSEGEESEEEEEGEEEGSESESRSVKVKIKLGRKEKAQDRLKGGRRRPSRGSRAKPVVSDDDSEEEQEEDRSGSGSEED
T2 sequence (P51531 whole entry, the tested form may be a part): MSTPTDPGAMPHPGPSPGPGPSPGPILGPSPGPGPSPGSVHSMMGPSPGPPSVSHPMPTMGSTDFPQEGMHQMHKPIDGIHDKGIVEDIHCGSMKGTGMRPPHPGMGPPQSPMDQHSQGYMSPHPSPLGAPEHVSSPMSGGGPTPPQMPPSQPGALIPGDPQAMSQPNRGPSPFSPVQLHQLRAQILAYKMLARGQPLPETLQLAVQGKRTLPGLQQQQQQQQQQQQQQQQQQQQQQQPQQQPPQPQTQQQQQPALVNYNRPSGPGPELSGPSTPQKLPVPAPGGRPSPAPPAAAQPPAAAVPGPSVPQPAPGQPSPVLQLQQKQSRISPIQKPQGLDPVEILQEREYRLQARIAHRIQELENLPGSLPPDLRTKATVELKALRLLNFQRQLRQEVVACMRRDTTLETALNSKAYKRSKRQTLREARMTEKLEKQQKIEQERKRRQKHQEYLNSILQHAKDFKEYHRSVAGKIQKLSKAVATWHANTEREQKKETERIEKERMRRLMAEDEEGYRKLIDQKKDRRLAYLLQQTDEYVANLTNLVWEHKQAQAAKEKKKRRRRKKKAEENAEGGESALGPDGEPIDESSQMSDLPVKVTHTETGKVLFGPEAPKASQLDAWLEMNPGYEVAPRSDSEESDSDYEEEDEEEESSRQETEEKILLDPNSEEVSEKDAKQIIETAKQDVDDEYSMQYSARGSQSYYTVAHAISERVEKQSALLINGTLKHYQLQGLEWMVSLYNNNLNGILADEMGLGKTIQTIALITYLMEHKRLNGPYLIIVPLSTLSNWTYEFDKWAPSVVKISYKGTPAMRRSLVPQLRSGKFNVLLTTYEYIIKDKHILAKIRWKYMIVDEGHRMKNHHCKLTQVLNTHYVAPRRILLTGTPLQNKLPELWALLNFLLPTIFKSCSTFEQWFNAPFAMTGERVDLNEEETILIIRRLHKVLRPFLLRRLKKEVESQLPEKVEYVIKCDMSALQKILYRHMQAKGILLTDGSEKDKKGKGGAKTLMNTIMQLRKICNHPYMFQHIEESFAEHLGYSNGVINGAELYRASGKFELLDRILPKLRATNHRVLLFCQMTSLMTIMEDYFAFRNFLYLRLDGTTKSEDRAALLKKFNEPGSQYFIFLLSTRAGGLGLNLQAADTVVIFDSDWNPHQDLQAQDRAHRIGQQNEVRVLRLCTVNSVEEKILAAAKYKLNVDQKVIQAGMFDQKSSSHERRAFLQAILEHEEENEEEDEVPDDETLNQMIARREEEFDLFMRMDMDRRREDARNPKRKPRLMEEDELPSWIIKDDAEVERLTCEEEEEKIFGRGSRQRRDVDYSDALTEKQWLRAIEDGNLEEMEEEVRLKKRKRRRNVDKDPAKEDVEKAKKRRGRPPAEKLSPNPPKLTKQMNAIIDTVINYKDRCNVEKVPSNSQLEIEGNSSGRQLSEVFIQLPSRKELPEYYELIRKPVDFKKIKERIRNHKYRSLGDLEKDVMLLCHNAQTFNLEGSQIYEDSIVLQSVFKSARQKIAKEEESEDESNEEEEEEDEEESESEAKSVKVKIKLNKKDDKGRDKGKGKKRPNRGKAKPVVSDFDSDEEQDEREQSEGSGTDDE

| Compound | DC50 [1] [nM] | inhibition at 1 µM ([1]; @ 1 μM) [%] | DC50 [2] [nM] | SMARCA2 % Degradation @ 1 μM ([2]; @ 1 μM) | inhibition at 1 µM ([1]; 1 μM) [%] | SMARCA2 % Degradation @ 1 μM ([2]; 1 μM) |
| --- | --- | --- | --- | --- | --- | --- |
| C[C@@H]1CCN(c2cc(-c3ccccc3O)nnc2N)CCN1c1ccnc(C#CCN(C)C)c1C#N [Compound P-406, 4-{(R)-4-[3-amino-6-(0-hydroxyphenyl)-4-pyridazinyl]-7-methyl-1,4-diazepan-1-yl}-2-[3-(dimethylamino)-1-propynyl]nicotinonitrile] | 500 to 5000 | – | 500 to 5000 | – | 30 to 70 | ++ (++=30-70%) |
| C[C@@H]1CCN(c2cc(-c3ccccc3O)nnc2N)CCN1c1ccc(C(F)(F)F)c(C#CCN(C)C)n1 [Compound P-395, 0-{5-[(R)-4-{6-[3-(dimethylamino)-1-propynyl]-5-(trifluoromcthyl)-2-pyridyl}-5-methyl-1,4-diazepan-1-yl]-6-amino-3-pyridazinyl}phenol] | > 5000 | – | 500 to 5000 | – | – | – |
| CN(C)CC#Cc1nc(N2CCCN(c3cc(-c4ccccc4O)nnc3N)CC2)ccc1C#N [Compound P-385, 6-{4-[3-amino-6-(o-hydroxyphenyl)-4-pyridazinyl]-1,4-diazepan-1-y1}-2-[3-(dimethylamino)-1-propynyl]nicotinonitrile] | 50 to 500 | – | 50 to 500 | – | > 70 | +++ (+++=>70%) |
| C[C@@H]1CCN(c2cc(-c3ccccc3O)nnc2N)CCN1c1ccnc(C#CCN(C)CCF)n1 [Compound P-154, o-{5-[(R)-4-(2-{3-[(2-fluoroethyl)-N-methylamino]-1-propynyl}-4-pyrimidinyl)-5-methyl-1,4-diazepan-1-yl]-6-amino-3-pyridaziny1} phenol] | 50 to 500 | < 30 | 50 to 500 | ++ (++=30-70%) | – | – |
| Cc1c(C(=O)NCC#Cc2nc(N(C)C)cc(N3CCCN(c4cc(-c5ccccc5O)nnc4N)CC3)n2)nn(C)c1C [Compound P-140, N-(3-(4-(4-(3-amino-6-(2-hydroxyphenyl)pyridazin-4-yl)-1,4-diazepan-1-yl)-6-(dimethylamino)pyrimidin-2-yl)prop-2-yn-1-yl)-1,4,5-trimethyl-1H-pyrazole-3-carboxamide] | 500 to 5000 | 30 to 70 | 500 to 5000 | ++ (++=30-70%) | – | – |
| Nc1nnc(-c2ccccc2O)cc1N1CCC2(CCCN(c3ccnc(C#CCNC(=O)c4cc5ncccn5n4)n3)C2)CC1 [Compound P-35, N-(3-(4-(9-(3-amino-6-(2-hydroxyphenyl)pyridazin-4-yl)-2,9-diazaspiro[5.5]undecan-2-yl)pyrimidin-2-yl)prop-2-yn-1-yl)pyrazolo[1,5-a]pyrimidine-2-carboxamide] | 50 to 500 | > 70 | 50 to 500 | ++ (++=30-70%) | – | – |
| C[C@@H]1CCN(c2cc(-c3ccccc3O)nnc2N)CCN1c1ccnc(/C=C/CN(C)CCF)n1 [Compound P-164] | < 50 | 30 to 70 | < 50 | +++ (+++=>70%) | – | – |
| CCC1CN(c2ccnc(C#CCNC(=O)c3cc4ncccn4n3)n2)CCN1c1cc(-c2ccccc2O)nnc1N (stereo not shown) [Compound P-51, N-(3-(4-(4-(3-amino-6-(2-hydroxyphenyl)pyridazin-4-yl)-3-ethylpiperazin-1-yl)pyrimidin-2-yl)prop-2-yn-1-yl)pyrazolo[1,5-a]pyrimidine-2-carboxamide] | 50 to 500 | 30 to 70 | 50 to 500 | ++ (++=30-70%) | – | – |
| C[C@@H]1CCN(c2cc(-c3ccccc3O)nnc2N)CCN1c1ccnc(C#CCN2CCOCC2)c1 [Compound P-426, 0-(5-{(R)-5-methyl-4-[2-(3-morpholino-1-propynyl)-4-pyridyl]-1,4-diazepan-1-yl}-6-amino-3-pyridazinyl)phenol] | 50 to 500 | – | 50 to 500 | – | 30 to 70 | ++ (++=30-70%) |
| Nc1nnc(-c2ccccc2O)cc1N1CC2CC(C1)N2c1ccnc(C#CCn2cncn2)n1 [Compound P-205, o-[6-amino-5-(6-{2-[3-(1H-1,2,4-triazol-1-yl)-1-propynyl]-4-pyrimidinyl}-3,6-diazabicyclo[3.1.1]hept-3-yl)-3-pyridazinyl]phenol] | 500 to 5000 | 30 to 70 | > 5000 | – | – | – |
| Nc1nnc(-c2ccccc2O)cc1N1CC2C1CCN2c1ccnc(C#CCNC(=O)c2cc3ncccn3n2)n1 (stereo not shown) [Compound P-18, N-(3-(4-(6-(3-amino-6-(2-hydroxyphenyl)pyridazin-4-yl)-2,6-diazabicyclo[3.2.0]heptan-2-yl)pyrimidin-2-y1)prop-2-yn-1-yl)pyrazolo[1,5-a]pyrimidine-2-carboxamide] | 50 to 500 | 30 to 70 | 500 to 5000 | + (+=<30%) | – | – |

Other lines, results leading:

| DC50 [1] [nM] | inhibition at 1 µM ([1]; @ 1 μM) [%] | DC50 [2] [nM] | SMARCA2 % Degradation @ 1 μM ([2]; @ 1 μM) | inhibition at 1 µM ([1]; 1 μM) [%] | SMARCA2 % Degradation @ 1 μM ([2]; 1 μM) | Compound |
| --- | --- | --- | --- | --- | --- | --- |
| 50 to 500 | 30 to 70 | 50 to 500 | +++ (+++=>70%) | – | – | Nc1nnc(-c2ccccc2O)cc1N1CCCN(c2ccnc(C#CCN3CC(F)(F)C3)n2)CC1 [Compound P-312, 0-[6-amino-5-(4-{2-[3-(3,3-difluoro-1-azetidinyl)-1-propynyl]-4-pyrimidinyl}-1,4-diazepan-1-yl)-3-pyridazinyl]phenol] |
| 50 to 500 | 30 to 70 | 50 to 500 | +++ (+++=>70%) | – | – | Nc1nnc(-c2ccccc2O)cc1N1CCCN(c2ccnc(C#CCn3ccnn3)n2)CC1 [Compound P-144, 2-(5-(4-(2-(3-(1H-1,2,3-triazol-1-yl)prop-1-yn-1-yl)pyrimidin-4-yl)-1,4-diazepan-1-yl)-6-aminopyridazin-3-yl)phenol] |
| 50 to 500 | < 30 | 50 to 500 | ++ (++=30-70%) | – | – | C[C@@H]1CCN(c2cc(-c3ccccc3O)nnc2N)CCN1c1ccnc(C#CCN2CC(F)C2)n1 [Compound P-230, o-{5-[(R)-4-{2-[3-(3-fluoro-1-azetidinyl)-1-propynyl]-4-pyrimidinyl}-5-methyl-1,4-diazepan-1-y1]-6-amino-3-pyridaziny1}phenol] |
| 500 to 5000 | 30 to 70 | 50 to 500 | ++ (++=30-70%) | – | – | Nc1nnc(-c2ccccc2O)cc1N1CCCN(c2ccnc(C#CCN3C[C@H]4C[C@@H]3CO4)n2)CC1 [Compound P-376, 0-(5-{4-[2-(3-{(1R,4R)-2-oxa-5-azabicyclo[2.2.1]hept-5-y1}-1-propynyl)-4-pyrimidinyl]-1,4-diazepan-1-y1}-6-amino-3-pyridazinyl)phenol] |
| 500 to 5000 | < 30 | 500 to 5000 | ++ (++=30-70%) | – | – | CC(C)(O)C#Cc1nccc(N2CCCN(c3cc(-c4ccccc4O)nnc3N)CC2)n1 [Compound P-341, 4-(4-{4-[3-amino-6-(0-hydroxyphenyl)-4-pyridaziny1]-1,4-diazepan-1-yl}-2-pyrimidinyl)-2-methyl-3-butyn-2-ol] |
| 500 to 5000 | 30 to 70 | 500 to 5000 | ++ (++=30-70%) | – | – | Nc1nnc(-c2ccccc2O)cc1N1CCCN(c2ccnc(C#CCN3CCn4c(nnc4C(F)(F)F)C3)n2)CC1 [Compound P-363, 0-{6-amino-5-[4-(2-{3-[3-(trifluoromethyl)-4,5,6,7-tetrahydro-1,2,3a,6-tetraaza-6-indenyl]-1-propynyl}-4-pyrimidinyl)-1,4-diazepan-1-yl]-3-pyridaziny1} phenol] |
| < 50 | > 70 | < 50 | +++ (+++=>70%) | – | – | CN(CC#Cc1nccc(N2CCCN(c3cc(-c4ccccc4O)nnc3N)CC2)n1)C(=O)c1cc2ncccn2n1 [Compound P-24, N-(3-(4-(4-(3-amino-6-(2-hydroxyphenyl)pyridazin-4-yl)-1,4-diazepan-1-yl)pyrimidin-2-yl)prop-2-yn-1-yl)-N-methylpyrazolo[1,5-a]pyrimidine-2-carboxamide] |
| 500 to 5000 | 30 to 70 | 500 to 5000 | ++ (++=30-70%) | – | – | CS(=O)(=O)N1CCC(C#Cc2nccc(N3CCCN(c4cc(-c5ccccc5O)nnc4N)CC3)n2)CC1 [Compound P-352, 0-[6-amino-5-(4-{2-[2-(1-mesyl-4-piperidyl)ethynyl]-4-pyrimidinyl}-1,4-diazepan-1-yl)-3-pyridazinyl]phenol] |
| 50 to 500 | > 70 | 50 to 500 | +++ (+++=>70%) | – | – | Nc1nnc(-c2ccccc2O)cc1N1CCCN(c2ccnc(C#CCN3CCC(Cc4ccccc4)CC3)n2)CC1 [Compound P-337, 0-[6-amino-5-(4-{2-[3-(4-benzyl-1-piperidyl)-1-propynyl]-4-pyrimidinyl}-1,4-diazepan-1-yl)-3-pyridazinyl]phenol] |
| 50 to 500 | 30 to 70 | 50 to 500 | ++ (++=30-70%) | – | – | C[C@H](O)C#Cc1nccc(N2CCCN(c3cc(-c4ccccc4O)nnc3N)CC2)n1 [Compound P-321, 0-[5-(4-{2-[(S)-3-hydroxy-1-butynyl]-4-pyrimidinyl}-1,4-diazepan-1-yl)-6-amino-3-pyridazinyl]phenol] |
| 500 to 5000 | < 30 | 500 to 5000 | + (+=<30%) | – | – | CC1CN(c2ccnc(C#CCN)n2)CCN(c2cc(-c3ccccc3O)nnc2N)C1 (stereo not shown) [Compound P-39, 2-(6-amino-5-(4-(2-(3-aminoprop-1-yn-1-yl)pyrimidin-4-yl)-6-methyl-1,4-diazepan-1-yl)pyridazin-3-yl)phenol] |
